From ChEMBL document CHEMBL1156644, “Cembrane diterpenes from the gorgonian Leptogorgia laxa” (2008)

How the values were obtained:
Assay type in all cases: functional
MDA-MB-231 = test: Cytotoxicity against human MDA-MB-231 cells by SRB method
A549 = test: Cytotoxicity against human A549 cells by SRB method
HT-29 = test: Cytotoxicity against human HT29 cells by SRB method

Compound | GI50 (MDA-MB-231) [µM] | GI50 (A549) [µM] | GI50 (HT-29) [µM]
C=C(C)[C@@H]1CC/C(C)=C/CC/C(C)=C/C(=O)C[C@@]2(C)O[C@@H]2C1 [LEPTODIENONE B] | 6.3 | 5.6 | 10.9
C=C(C)[C@@H]1CC/C(C)=C/CC/C(C)=C\C(=O)C[C@@]2(C)O[C@@H]2C1 [LEPTODIENONE A] | 16.2 | – | 14.9
